We go through nine compounds from US7335723B2, “Melanin-concentrating hormone antagonists” (priority 2001, dated 2008).

Where a SMILES comes first, the peptide text is derived from it. Bridges are numbered along the chain shown (N, C = ends). [ ]: non-standard residue; d: D form. The star is where a group is joined. Pentanoyl(5-guanidino) = NC(N)=NCCCCC(=O)*; dNle = CCCC[C@@H](N)C(=O)O; Ava = NCCCCC(=O)O

Experiment [1] has as its target T1, human MCH-2R (Homo sapiens, UniProt Q969V1). Briefly: MCH-2R binding assay, inhibition of [125I]-human MCH binding to membranes. The arrangement: expressed in transfected cells; host or cells: 293-AEQ17 (aequorin-expressing HEK-293 reporter line). Particulars: inhibition of [125I]-human MCH (Phe13, Tyr19) binding, cell membranes.
Procedure: (§1) Cell membranes were prepared on ice. Each T-75 flask was rinsed twice with 10 ml of Enzyme-free Cell Dissociation Buffer (Specialty Media, Lavallette, N.J.), and the cell monolayer was detached in an additional 10 ml of Enzyme-free Cell Dissociation Buffer by incubation at room temperature for 10 minutes. Dissociated cells were centrifuged (500×g for 10 minutes at 4° C.), resuspended in 5 ml homogenization buffer (10 mM Tris-HCl, pH 7.4, 0.01 mM Pefabloc, 10 μM phosphoramidon, 40 μg/ml bacitracin) and then homogenized using a glass homogenizer (10-15 strokes). The homogenate was centrifuged for 10 minutes (1,000×g at 4° C.). The resulting supernatant was then centrifuged at 38,700×g for 15 minutes at 4° C. Pelleted membranes were resuspended (passed through 25 gauge needle 5 times), snap-frozen on liquid nitrogen, and stored at −80° C. until use.
Bound radioligand was separated by rapid vacuum filtration (Packard Filtermate 96-well cell harvester) through GF/C filters pretreated for 1 hour with 1% polyethylenimine. After application of the membrane suspension to the filter, the filters were washed 3 times with 3 ml each of ice-cold 50 mM Tris-HCl, pH 7.4, 10 mM MgCl2, 2 mM EDTA, 0.04% Tween 20 and the bound radioactivity on the filters was quantitated by scintillation counting (TopCount device). […]
The target in experiment [2] is T1, human MCH-2R. Briefly: Aequorin bioluminescence functional assay, MCH-2R agonist activity. Particulars: for MCH-2R Agonist Activation %: 293-AEQ17 cells expressing human MCH-2R.
For another experiment, the target named is human MCH-1R (Homo sapiens, UniProt Q99705). Put plainly: MCH-1R binding assay, inhibition of [125I]-human MCH binding to membranes.
Chain of human MCH-1R (Q99705 whole entry): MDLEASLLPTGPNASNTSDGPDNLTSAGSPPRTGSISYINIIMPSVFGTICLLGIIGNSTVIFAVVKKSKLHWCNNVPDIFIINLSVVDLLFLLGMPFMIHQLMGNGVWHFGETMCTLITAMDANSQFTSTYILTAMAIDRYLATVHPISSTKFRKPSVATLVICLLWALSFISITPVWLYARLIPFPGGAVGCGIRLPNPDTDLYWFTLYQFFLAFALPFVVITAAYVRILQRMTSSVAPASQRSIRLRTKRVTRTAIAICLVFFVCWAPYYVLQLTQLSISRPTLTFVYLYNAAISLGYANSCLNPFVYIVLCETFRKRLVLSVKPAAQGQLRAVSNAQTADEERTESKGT
Experiment [3] deals with T2, rat MCH-1R (Rattus norvegicus, UniProt P97639). Put plainly: Aequorin bioluminescence functional assay, MCH-1R agonist activity. To be noted: for MCH-1R Agonist Activation %: 293-AEQ17 cells expressing rat MCH-1R.
T2 sequence (P97639 whole entry): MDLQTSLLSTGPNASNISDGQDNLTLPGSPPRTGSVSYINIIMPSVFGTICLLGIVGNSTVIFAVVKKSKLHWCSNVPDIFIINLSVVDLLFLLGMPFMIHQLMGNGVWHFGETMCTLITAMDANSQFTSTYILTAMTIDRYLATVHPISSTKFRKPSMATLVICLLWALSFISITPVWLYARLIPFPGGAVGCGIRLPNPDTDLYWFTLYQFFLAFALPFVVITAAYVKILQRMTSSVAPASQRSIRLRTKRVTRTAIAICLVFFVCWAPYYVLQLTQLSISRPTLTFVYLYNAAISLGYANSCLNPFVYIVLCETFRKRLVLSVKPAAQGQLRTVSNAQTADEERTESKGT
The target in experiment [4] is T2, rat MCH-1R. Briefly: Antagonist assay, 293-AEQ17 cells expressing rat MCH-1R. The experiment is classed as cell-based. The arrangement: expressed in transfected cells; host or cells: 293-AEQ17 (aequorin-expressing HEK-293 reporter line). Particulars: for Kb: determined per Trends in Pharmacol. Sci. 14:237-239, 1993. The procedure:
Cells were grown in DMEM (high glucose) supplemented with 10% FBS (Hyclone), 500 μg/ml G418, 200 μg/ml hygromycin and 25 mM HEPES in T75 flasks.
The assay itself involved charging apoaequorin with coelenterazine cp(Molecular Probes, C-14260) and was performed as follows:
1. Confluent T75 flasks are rinsed 1× with 12 ml Hams F12 medium+300 μM glutathione+0.1% FBS.
2. The cells were charged by adding 8 ml Hams F12+0.1% FBS+300 μM glutathione+10 μM coelenterazine, incubate at 37° C. for 1 hour.
4. ECB (6 ml) is added to the flask and the cells are dissociated with a rubber-tipped scraper, centrifuged for 5 minutes at 2500 rpm and the cell pellet resuspended in 5 ml ECB. The cells are counted and diluted to 5×10^5/ml.
Binding and agonist activity at the MCH-1R and MCH-2R was determined as described in Examples 2 and 3. Antagonist IC50 was determined as described in Example 4. Kb was determined using the procedures described in Trends in Pharmacol. Sci. 14:237-239, 1993.

Usually IC50 stands for the concentration needed to halve the response being measured. For orientation: EC50 means the concentration giving half of the maximal effect. As a reminder, the Kb is the equilibrium dissociation constant of an antagonist, usually derived from a functional assay.

T1 sequence (Q969V1 whole entry): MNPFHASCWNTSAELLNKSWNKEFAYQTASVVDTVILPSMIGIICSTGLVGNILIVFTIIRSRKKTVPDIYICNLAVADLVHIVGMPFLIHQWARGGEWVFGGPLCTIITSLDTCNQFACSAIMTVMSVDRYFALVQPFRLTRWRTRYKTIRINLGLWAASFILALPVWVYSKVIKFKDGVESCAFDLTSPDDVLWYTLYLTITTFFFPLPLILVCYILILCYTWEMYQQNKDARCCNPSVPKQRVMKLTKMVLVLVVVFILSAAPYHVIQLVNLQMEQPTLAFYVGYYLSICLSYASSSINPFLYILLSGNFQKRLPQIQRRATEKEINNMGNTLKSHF
Procedure for human MCH-1R: as §1
Bound radioligand was separated by rapid vacuum filtration (Packard Filtermate 96-well cell harvester) through GF/C filters pretreated for 1 hour with 1% polyethylenimine. After application of the membrane suspension to the filter, the filters were washed 3 times with 3 ml each of ice-cold 50 mM Tris-HCl, pH 7.4, 10 mM MgCl2, 2 mM EDTA, 0.04% Tween 20 and the bound radioactivity on the filters was quantitated by scintillation counting (TopCount device).
For the SPA-based assay, WGA-PVT beads (NEN Life Sciences Products) were resuspended in Dulbecco's PBS with calcium and magnesium (500 mg beads in 4 ml PBS). […] The suspension was mixed gently for 20 minutes, 12.3 ml of assay buffer and protease inhibitors were added (final concentration given): 2 μg/ml leupeptin, 10 μM phosphoramidon, 40 μg/ml bacitracin, 5 μg/ml aprotinin, 0.1 mM Pefabloc.
Coated beads were kept on ice until use.

In the case of `CSCC[C@@H]1NC(=O)[C@@H](NC(=O)[C@H](CCCNC(=N)N)NC(C)=O)CSSC[C@@H](C(N)=O)NC(=O)[C@@H]2CCCN2C(=O)[C@H](CCCNC(=N)N)NC(=O)[C@H](Cc2ccc(O)cc2)NC(=O)[C@H](C(C)C)NC(=O)[C@H](CCCNC(=N)N)NC(=O)CCCCNC(=O)CCCCNC1=O` [SEQ. ID. NO. 3] (Ac-RCM[Ava][Ava]RVYRPC-NH2; disulfide 2-11; C-terminus assumed), the IC50 at human MCH-2R [1] was 350 nM; at human MCH-1R, 3.7 nM. In addition, the figures for the concentration for a half-maximal effect (EC50) on human MCH-2R [2] and at rat MCH-1R [3] were above 10000 nM and 587 nM, respectively. The “MCH-1R Agonist Activation %” value at rat MCH-1R [3] is 82%.
In turn, `CSCC[C@@H]1NC(=O)[C@@H](NC(=O)CCCNC(=N)N)CSSC[C@@H](C(N)=O)NC(=O)CCCCNC(=O)CCCCNC(=O)[C@H](Cc2ccc(O)cc2)NC(=O)[C@H](C(C)C)NC(=O)[C@H](CCCNC(=N)N)NC(=O)CNC(=O)[C@H](CC(C)C)NC1=O` [SEQ. ID. NO. 12] showed a half-inhibitory concentration (IC50) on human MCH-2R [1] of 4000 nM. At human MCH-2R [2], the EC50 is above 10000 nM and the “MCH-2R Agonist Activation %” value was 14%. This compound had an IC50 on human MCH-1R of 8 nM. For the same compound, at rat MCH-1R [3], the concentration for a half-maximal effect (EC50) was above 10000 nM and the “MCH-1R Agonist Activation %” value is recorded as 6%.
In the case of `CSCC[C@@H]1NC(=O)[C@@H](NC(=O)CCCCNC(=N)N)CSSC[C@@H](C(=O)O)NC(=O)CCCCNC(=O)CCCCNC(=O)[C@H](Cc2ccc(O)cc2)NC(=O)[C@H](C(C)C)NC(=O)[C@H](CCCNC(=N)N)NC(=O)CNC(=O)[C@H](CC(C)C)NC1=O` [SEQ. ID. NO. 18], at human MCH-2R [2], the half-maximal effective concentration (EC50) is above 10000 nM and the “MCH-2R Agonist Activation %” value is given as 38%. The compound further showed an IC50 on human MCH-1R of 290 nM. On rat MCH-1R [4], this compound showed a concentration for half-maximal inhibition (IC50) of 75.7 nM and an antagonist dissociation constant (Kb) of 32.9 nM. Also, on rat MCH-1R [3], the EC50 was above 10000 nM and the “MCH-1R Agonist Activation %” value was 3.8%.
For the compound `CC(C)C[C@@H]1NC(=O)[C@H](C)NC(=O)[C@@H](NC(=O)CCCCNC(=N)N)CSSC[C@@H](C(N)=O)NC(=O)CCCCNC(=O)CCCCNC(=O)[C@H](Cc2ccc(O)cc2)NC(=O)[C@H](C(C)C)NC(=O)[C@H](CCCNC(=N)N)NC(=O)CNC1=O` [SEQ. ID. NO. 19] ({Pentanoyl(5-guanidino)}-CALGRVY[Ava][Ava]C-NH2; disulfide 1-10 (inferred); C-terminus assumed), the EC50 at human MCH-2R [2] and at rat MCH-1R [3] was above 10000 nM in each case. Moreover, the “MCH-2R Agonist Activation %” value at human MCH-2R [2] is 45%. The figures for the IC50 at human MCH-1R and at rat MCH-1R [4] were 140 nM and 67 nM, respectively. The compound further came in with a Kb at rat MCH-1R [4] of 29 nM.
In the case of `CSCC[C@@H]1NC(=O)[C@@H](NC(=O)CCCCNC(=N)N)CSSC[C@@H](C(N)=O)NC(=O)CCCCNC(=O)CCCCNC(=O)[C@H](Cc2ccc(O)cc2)NC(=O)[C@H](C)NC(=O)[C@H](CCCNC(=N)N)NC(=O)CNC(=O)[C@H](CC(C)C)NC1=O` [SEQ. ID. NO. 20] ({Pentanoyl(5-guanidino)}-CMLGRAY[Ava][Ava]C-NH2; disulfide 1-10; C-terminus assumed), at human MCH-2R [2], the EC50 is above 10000 nM and the “MCH-2R Agonist Activation %” value is given as 38%. At human MCH-1R, this compound gave a half-maximal inhibitory concentration (IC50) of 29 nM. On rat MCH-1R [4], this compound gave a half-maximal inhibitory concentration (IC50) of 4.7 nM and an antagonist dissociation constant (Kb) of 2 nM. Moreover, at rat MCH-1R [3], the EC50 is above 10000 nM and the “MCH-1R Agonist Activation %” value turned out to be 3.4%.
In the case of `CCCC[C@H]1NC(=O)[C@H](CC(C)C)NC(=O)[C@H](CCSC)NC(=O)[C@@H](NC(=O)CCCCNC(=N)N)CSSC[C@@H](C(N)=O)NC(=O)CCCCNC(=O)CCCCNC(=O)[C@H](Cc2ccc(O)cc2)NC(=O)[C@H](C(C)C)NC(=O)[C@H](CCCNC(=N)N)NC1=O` [SEQ. ID. NO. 27] ({Pentanoyl(5-guanidino)}-CML[dNle]RVY[Ava][Ava]C-NH2; disulfide 1-10; C-terminus assumed), at human MCH-2R [2], the concentration for a half-maximal effect (EC50) was above 10000 nM and the “MCH-2R Agonist Activation %” value is listed as 91%. Further, the IC50 on human MCH-1R is 28 nM. In addition, on rat MCH-1R [4], the IC50 came out at 5.4 nM and the antagonist dissociation constant (Kb) is 2.4 nM. At rat MCH-1R [3], the EC50 is above 10000 nM and the “MCH-1R Agonist Activation %” value turned out to be 3%.
As for `CSCC[C@@H]1NC(=O)[C@@H](NC(=O)[C@H](CCCNC(=N)N)NC(C)=O)CSSC[C@@H](C(N)=O)NC(=O)CCCCNC(=O)CCCCNC(=O)[C@H](Cc2ccc(O)cc2)NC(=O)[C@H](C(C)C)NC(=O)[C@H](CCCNC(=N)N)NC(=O)CCCCNC(=O)CCCCNC1=O` [SEQ. ID. NO. 30] (Ac-RCM[Ava][Ava]RVY[Ava][Ava]C-NH2; disulfide 2-11 (inferred); C-terminus assumed), on human MCH-2R [2], the EC50 was above 10000 nM and the “MCH-2R Agonist Activation %” value turned out to be 16%. The same compound came in with a half-inhibitory concentration (IC50) on human MCH-1R of 88 nM. In addition, on rat MCH-1R [4], the IC50 is 10.6 nM and the Kb turned out to be 4.6 nM. Further, at rat MCH-1R [3], the EC50 is above 10000 nM and the “MCH-1R Agonist Activation %” value was determined as 3%.
In the case of `CSCC[C@@H]1NC(=O)[C@@H](NC(=O)CCCCNC(=N)N)CSSC[C@@H](C(N)=O)NC(=O)CCCCNC(=O)CCCCNC(=O)[C@H](Cc2ccc(O)cc2)NC(=O)[C@H](C(C)C)NC(=O)[C@H](CCCNC(=N)N)NC(=O)CCCCNC(=O)CCCCNC1=O` [SEQ. ID. NO. 32] ({Pentanoyl(5-guanidino)}-CM[Ava][Ava]RVY[Ava][Ava]C-NH2; disulfide 1-10; C-terminus assumed), at human MCH-2R [2], the EC50 is above 10000 nM and the “MCH-2R Agonist Activation %” value worked out at 91%. This compound also had a concentration for half-maximal inhibition (IC50) at human MCH-1R of 62 nM. Further, at rat MCH-1R [4], the half-inhibitory concentration (IC50) turned out to be 56 nM and the Kb amounted to 24 nM. Besides, at rat MCH-1R [3], the EC50 is above 10000 nM and the “MCH-1R Agonist Activation %” value was found to be 3%.
On to `CSCC[C@@H]1NC(=O)[C@@H](NC(=O)[C@@H](CCCNC(=N)N)NC(C)=O)CSSC[C@@H](C(N)=O)NC(=O)CCCCNC(=O)CCCCNC(=O)[C@H](Cc2ccc(O)cc2)NC(=O)[C@H](C(C)C)NC(=O)[C@H](CCCNC(=N)N)NC(=O)CCCCNC(=O)CCCCNC1=O` [SEQ. ID. NO. 33] (Ac-[dR]CM[Ava][Ava]RVY[Ava][Ava]C-NH2; disulfide 2-11 (inferred); C-terminus assumed), for which, on human MCH-2R [2], the concentration giving a half-maximal response (EC50) is above 10000 nM and the “MCH-2R Agonist Activation %” value is 28%. The IC50 at human MCH-1R turned out to be 135 nM. Besides, at rat MCH-1R [4], the IC50 was determined as 13.8 nM and the Kb was determined as 6 nM. Besides, on rat MCH-1R [3], the EC50 is above 10000 nM and the “MCH-1R Agonist Activation %” value amounted to 2%.
